In patent publication US7160893B2, “Pyrimidine-2,4-dione derivatives as matrix metalloproteinase inhibitors” (Warner-Lambert Company, priority 2002, dated 2007):

target: MMP-13 catalytic domain (Homo sapiens, UniProt P45452); test: Inhibition of MMP-13 catalytic domain (thiopeptolide substrate hydrolysis assay); assay type: biochemical; settings: compounds of Example 33, Biological Table 1; read-out: MMP-13CD IC50
From the text: The assays measure the amount by which a test compound reduces the hydrolysis of a thiopeptolide substrate catalyzed by a matrix metalloproteinase enzyme. Such assays are described in detail by Ye et al., in Biochemistry, 1992;31(45):11231–11235, which is incorporated herein by reference. One such assay is described below in Biological Method 1.
Thiopeptolide substrates show virtually no decomposition or hydrolysis at or below neutral pH in the absence of a matrix metalloproteinase enzyme. A typical thiopeptolide substrate commonly utilized for assays is Ac-Pro-Leu-Gly-thioester-Leu-Leu-Gly-OEt. A 100 μL assay mixture will contain 50 mM of N-2-hydroxyethylpiperazine-N′-2-ethanesulfonic acid buffer (“HEPES,” pH 7.0), 10 mM CaCl2, 100 μM thiopeptolide substrate, and 1 mM 5,5′-dithio-bis-(2-nitro-benzoic acid) (DTNB). The thiopeptolide substrate concentration may be varied, for example from 10 to 800 μM to obtain Km and Kcat values. The change in absorbance at 405 nm is monitored on a Thermo Max microplate reader (molecular Devices, Menlo Park, Calif.) at room temperature (22° C.). The calculation of the amount of hydrolysis of the thiopeptolide substrate is based on E412=13600 M^−1 cm^−1 for the DTNB-derived product 3-carboxy-4-nitrothiophenoxide. Assays are carried out with and without matrix metalloproteinase inhibitor compounds, and the amount of hydrolysis is compared for a determination of inhibitory activity of the test compounds.
Test compounds were evaluated at various concentrations in order to determine their respective IC50 values, the micromolar concentration of compound required to cause a 50% inhibition of catalytic activity of the respective enzyme.
Some representative compounds of Formula I have been evaluated for their ability to inhibit MMP-13. Inhibitor activity versus other MMPs with the compounds may be determined using, for example, MMP-1FL, which refers to full length interstitial collagenase; MMP-2FL, which refers to full length Gelatinase A; MMP-3CD, which refers to the catalytic domain of stromelysin; MMP-7FL, which refers to full length matrilysin; MMP-9FL, which refers to full length Gelatinase B; MMP-13CD, which refers to the catalytic domain of collagenase 3; and MMP-14CD, which refers to the catalytic domain of MMP-14. Test compounds can be evaluated at various concentrations in order to determine their respective IC50 values, the micromolar concentration of compound required to cause a 50% inhibition of the hydrolytic activity of the respective enzyme.

**Q.** `Cc1c(SCc2ccccc2-c2ccccc2)n(C)c(=O)n(Cc2ccccc2)c1=O` [Example 33g, 3-Benzyl-6-(biphenyl-2-ylmethylsulfanyl)-1,5-dimethyl-1 H-pyrimidine-2,4-dione] was tested. Which IC50 did it give?
**A.** > 100 µM

**Q.** How did the IC50 turn out when `Cc1c(SCCCc2ccccc2)n(C)c(=O)n(Cc2ccccc2)c1=O` [Example 33c, 3-Benzyl-1,5-dimethyl-6-(3-phenyl-propylsulfanyl)-1H-pyrimidine-2,4-dione] was run?
**A.** > 100 µM

**Q.** `Cc1c(SCCOc2ccc(F)cc2)n(C)c(=O)n(Cc2ccccc2)c1=O` [Example 33a, 3-Benzyl-6-[2-(4-fluoro-phenoxy)-ethylsulfanyl]-1,5-dimethyl-1H-pyrimidine-2,4-dione] was tested. Which IC50 did it give?
**A.** > 100 µM

**Q.** `Cc1c(SCc2ccccc2-c2ccccc2)[nH]c(=O)n(Cc2ccccc2)c1=O` [Example 33u, 3-Benzyl-6-(biphenyl-2-ylmethylsulfanyl)-5-methyl-1 H-pyrimidine-2,4-dione] was tested. Which IC50 did it give?
**A.** > 100 µM

**Q.** Which IC50 does the source give for `COc1ccc2nc(CSc3[nH]c(=O)n(Cc4ccccc4)c(=O)c3C)c(=O)oc2c1` [Example 33k, 3-Benzyl-6-(7-methoxy-2-oxo-2H-1,4-benzoxazin-3-ylmethylsulfanyl)-5-methyl-1H-pyrimidine-2,4-dione] here?
**A.** > 30 µM

**Q.** `Cc1c(SCCCC(=O)c2ccc(Br)cc2)[nH]c(=O)n(Cc2ccccc2)c1=O` [Example 33r, 3-Benzyl-6-[4-(4-bromo-phenyl)-4-oxo-butylsulfanyl]-5-methyl-1H-pyrimidine-2,4-dione] was tested. Which IC50 did it give?
**A.** > 100 µM

**Q.** `Cc1c(SCc2ccc3ccccc3c2)[nH]c(=O)n(Cc2ccccc2)c1=O` [Example 33o, 3-Benzyl-5-methyl-6-(naphthalen-2-ylmethylsulfanyl)-1H-pyrimidine-2,4-dione] was tested. Which IC50 did it give?
**A.** > 100 µM

**Q.** With `Cc1c(SCCC(=O)c2ccc(F)cc2)n(C)c(=O)n(Cc2ccccc2)c1=O` [Example 33d, 3-Benzyl-6-[3-(4-fluoro-phenyl)-3-oxo-propylsulfanyl]-1,5-dimethyl-1H-pyrimidine-2,4-dione] as the compound, how does the IC50 read?
**A.** > 100 µM

**Q.** Which IC50 does the source give for `Cc1c(SCc2ccc3nc(C(F)(F)F)cc(Cl)c3c2)[nH]c(=O)n(Cc2ccccc2)c1=O` [Example 33i, 3-Benzyl-6-(4-chloro-2-trifluoromethyl-quinolin-6-ylmethylsulfanyl)-5-methyl-1H-pyrimidine-2,4-dione] here?
**A.** > 100 µM

**Q.** With `COc1ccc(C(=O)CSc2[nH]c(=O)n(Cc3ccccc3)c(=O)c2C)cc1` [Example 33v, 3-Benzyl-6-[2-(4-methoxy-phenyl)-2-oxo-ethylsulfanyl]-5-methyl-1H-pyrimidine-2,4-dione] as the compound, how does the IC50 read?
**A.** 18 µM

**Q.** For `Cc1c(SCC(=O)c2cc(-c3ccc(Cl)cc3Cl)no2)[nH]c(=O)n(Cc2ccccc2)c1=O` [Example 33t, 3-Benzyl-6-{2-[3-(2,4-dichloro-phenyl)-isoxazol-5-yl]-2-oxo-ethylsulfanyl}-5-methyl-1H-pyrimidine-2,4-dione], which IC50 is on record?
**A.** > 30 µM

**Q.** `Cc1c(SCc2ccc3nc(C(F)(F)F)cc(Cl)c3c2)n(C)c(=O)n(Cc2ccccc2)c1=O` [Example 33b, 3-Benzyl-6-(4-chloro-2-trifluoromethyl-quinolin-6-ylmethylsulfanyl)-1,5-dimethyl-1H-pyrimidine-2,4-dione] was tested. Which IC50 did it give?
**A.** > 100 µM

**Q.** Which IC50 does the source give for `Cc1c(SCC(=O)c2ccc(-c3ccccc3)cc2)n(C)c(=O)n(Cc2ccccc2)c1=O` [Example 33f, 3-Benzyl-6-(2-biphenyl-4-yl-2-oxo-ethylsulfanyl)-1,5-dimethyl-1H-pyrimidine-2,4-dione] here?
**A.** > 100 µM

**Q.** How did the IC50 turn out when `COc1ccc(C(=O)CSc2c(C)c(=O)n(Cc3ccccc3)c(=O)n2C)cc1` [Example 33h, 3-Benzyl-6-[2-(4-methoxy-phenyl)-2-oxo-ethylsulfanyl]-1,5-dimethyl-1H-pyrimidine-2,4-dione] was run?
**A.** > 100 µM

**Q.** How did the IC50 turn out when `Cc1c(SCCCc2ccccc2)[nH]c(=O)n(Cc2ccccc2)c1=O` [Example 33m, 3-Benzyl-5-methyl-6-(3-phenyl-propylsulfanyl)-1H-pyrimidine-2,4-dione] was run?
**A.** > 100 µM

**Q.** For `Cc1c(SCC(=O)c2ccc(-c3ccccc3)cc2)[nH]c(=O)n(Cc2ccccc2)c1=O` [Example 33p, 3-Benzyl-6-(2-biphenyl-4-yl-2-oxo-ethylsulfanyl)-5-methyl-1H-pyrimidine-2,4-dione], which IC50 is on record?
**A.** > 30 µM

**Q.** With `Cc1c(SCc2ccc3ccccc3c2)n(C)c(=O)n(Cc2ccccc2)c1=O` [Example 33e, 3-Benzyl-1,5-dimethyl-6-(naphthalen-2-ylmethylsulfanyl)-1H-pyrimidine-2,4-dione] as the compound, how does the IC50 read?
**A.** > 100 µM

**Q.** How did the IC50 turn out when `Cc1onc(-c2ccccc2)c1C(=O)CSc1[nH]c(=O)n(Cc2ccccc2)c(=O)c1C` [Example 33j, 3-Benzyl-5-methyl-6-[2-(5-methyl-3-phenyl-isoxazol-4-yl)-2-oxo-ethylsulfanyl]-1H-pyrimidine-2,4-dione] was run?
**A.** 23 µM

**Q.** `Cc1c(SCCC(=O)c2ccc(F)cc2)[nH]c(=O)n(Cc2ccccc2)c1=O` [Example 33n, 3-Benzyl-6-[3-(4-fluoro-phenyl)-3-oxo-propylsulfanyl]-5-methyl-1H-pyrimidine-2,4-dione] was tested. Which IC50 did it give?
**A.** > 30 µM

**Q.** How did the IC50 turn out when `Cc1c(SCC(=O)c2cc(-c3ccccc3)no2)[nH]c(=O)n(Cc2ccccc2)c1=O` [Example 33l, 3-Benzyl-5-methyl-6-[2-oxo-2-(3-phenyl-isoxazol-5-yl)-ethylsulfanyl]-1H-pyrimidine-2,4-dione] was run?
**A.** > 30 µM

**Q.** How did the IC50 turn out when `Cc1c(SCCCCOc2ccccc2)[nH]c(=O)n(Cc2ccccc2)c1=O` [Example 33s, 3-Benzyl-5-methyl-6-(4-phenoxy-butylsulfanyl)-1H-pyrimidine-2,4-dione] was run?
**A.** > 100 µM

**Q.** How did the IC50 turn out when `Cc1c(SCc2nc3ccccc3[nH]2)[nH]c(=O)n(Cc2ccccc2)c1=O` [Example 33q, 6-(1H-Benzimidazol-2-ylmethylsulfanyl)-3-benzyl-5-methyl-1H-pyrimidine-2,4-dione] was run?
**A.** > 100 µM

same assay, conditions: values in text, given as about; read-out: IC50 with MMP-13 catalytic domain

**Q.** For `Cc1c(SCc2cc(-c3ccc(Cl)cc3)no2)[nH]c(=O)n(Cc2ccccc2)c1=O` [Example 20, 3-Benzyl-6-[3-(4-chloro-phenyl)-isoxazol-5-ylmethylsulfanyl]-5-methyl-1H-pyrimidine-2,4-dione], which IC50 is on record?
**A.** ~1.2 µM

**Q.** `COc1ccc2nc(Nc3[nH]c(=O)n(Cc4ccccc4)c(=O)c3C)sc2c1` [Example 29, 3-Benzyl-6-(6-methoxy-benzothiazol-2-ylamino)-5-methyl-1H-pyrimidine-2,4-dione] was tested. Which IC50 did it give?
**A.** ~0.44 µM

**Q.** How did the IC50 turn out when `Cc1c(SCc2cc(-c3ccc(Cl)cc3)on2)[nH]c(=O)n(Cc2ccccc2)c1=O` [Example 6, 3-Benzyl-6-[5-(4-chloro-phenyl)-isoxazol-3-ylmethylsulfanyl]-5-methyl-1H-pyrimidine-2,4-dione] was run?
**A.** ~2.1 µM

**Q.** How did the IC50 turn out when `COc1ccc(-c2cc(CSc3[nH]c(=O)n(Cc4ccccc4)c(=O)c3C)on2)cc1` [Example 7, 3-Benzyl-6-[3-(4-methoxy-phenyl)-isoxazol-5-ylmethylsulfanyl]-5-methyl-1H-pyrimidine-2,4-dione] was run?
**A.** ~0.44 µM
